Columns and labels:
Assay type in all cases: cell-based, human
A549 cells [1] = assay: Atomic force microscopy, A549; conditions: A549, 40 nmol/L, 24 hr
Text: Atomic force microscopy. […] Briefly, live cells cultured were imaged in 60 mm dishes with a Nanoscope Catalyst AFM (Bruker, Billerica, Mass.) mounted on a Nikon Ti inverted epifluorescent microscope. […] To collect the nanomechanical phenotypes of single cells immersed in culture media, 30×30 μm images were captured with a resolution of 256×256 pixels using the PeakForce Quantitative Nanomechanical Mapping (QNM) AFM (Bruker, Billerica, Mass.). For imaging, […]-AIR (Bruker, Billerica, Mass.) probes were applied with the nominal spring constant 0.4 N/m. Following the Sneddon model and the Sokolov's rules, nanomechanical parameters were calculated with Nanoscope Analysis software v.1.7 (Bruker, Billerica, Mass.) using retrace images. Images of at least 15 cells representing each tested case in three biological replicates were collected.
Atomic force microscopy (AFM). […] Briefly, live cells cultured in 60 mm dishes were imaged with a Nanoscope Catalyst AFM (Bruker) mounted on a Nikon Ti inverted epifluorescent microscope. […] To collect the nanomechanical phenotypes of single cells immersed in culture media, 30×30 μm images were captured with a resolution of 256×256 pixels using the Peak Force Quantitative Nanomechanical Mapping (QNM) AFM (Bruker). For imaging, […]-AIR probes were used with the nominal spring constant 0.4 N/m. Following the Sneddon model and the Sokolov's rules, nanomechanical parameters were calculated with Nanoscope Analysis software v.1.7 using retrace images.

A549 cells [2] = assay: RNA-seq of TP-0903-treated A549 cells; conditions: A549, 40 nmol/L
Procedure: RNA-seq. Total RNA was extracted from TP-0903-treated and AXL-knockdown A549 cells and from respective controls in two biological replicates by using the PureLink RNA Mini Kit (Thermo Fisher Scientific). Sequencing of cDNAs was performed with Illumina HiSeq3000 as per manufacturer's instructions. Paired-end FASTQ files were generated and aligned with the human reference genome GRCh38 by using STAR alignment software. RSEM was applied to quantify gene expression levels, and fragments per kilobase of transcript per million (FPKM) mapped reads were calculated. The different expression levels of genes were compared between control and treatment groups by using RSEM software. […] Both gene sets were used to perform pathway enrichment analysis on Gene Ontology Consortium (http://geneontology.org/) by using Reactome pathway databases in PANTHER [45, 46]. Significant pathways were further analyzed with gene sets downloaded from the Molecular Signatures Database v6.2 (http://software.broadinstitute.org/gsea/msigdb/). Fold changes of candidate genes were calculated on the basis of log FPKM values and used to generate heat maps.
RNA-seq. […] The RSEM software was applied to quantify expression levels, and fragments per kilo base of transcript per million (FPKM) mapped reads were calculated. […]

A549 and H2009 cells = assay: CyTOF profiling of lung cancer cell lines
Procedure: Cytometry by time of flight mass spectrometry (CyTOF). Antibodies were conjugated according to the manufacturer's instructions (Fluidigm, South San Francisco, Calif.) or purchased in pre-conjugated forms from the supplier (Fluidigm). […] The cells were harvested and stained with cisplatin (Fluidigm) and metal-conjugated surface antibodies sequentially for viability and surface staining. After fixation and permeabilization, the intracellular staining with metal-conjugated antibodies was performed. The cells were then labeled with an iridium-containing DNA intercalator (^191Ir^+, ^193Ir^+) to identify cell events before analysis on a Helios mass cytometer (Fluidigm). Signals were bead-normalized using EQ Four Element Calibration Beads (Fluidigm). Signals of samples were normalized using CyTOF software (Version 6.7.1014, Fluidigm). The generated files underwent signal cleanup and filtering for live/dead cells using Cytobank (https://www.cytobank.org/, Cytobank Inc.) and download gated Flow Cytometry Standard (FCS) file for further analysis using Cytofkit based on PhenoGraph algorithm, which was implemented in R and freely available from the Bioconductor website (https://bioconductor.org/packages/cytofkit/). CyTOF data was visualized using t-distributed stochastic neighbor embedding (t-SNE) algorithm and plotted on a continuum of protein expression with phenotypically related cells clustered together.
Cytometry by time-of-flight (CyTOF). Antibodies were conjugated in-house according to the manufacturer's instructions or purchased in pre-conjugated forms from the supplier (Fluidigm; Table 5). Single cells from cell lines, tumors, or PBMCs were harvested and stained with cisplatin and metal-conjugated surface antibodies sequentially for viability and surface staining. After fixation and permeabilization, cells were stained with metal-conjugated antibodies. The cells were then labeled with an iridium-containing DNA intercalator (^191Ir^+ or ^193Ir^+) for identification of cell events before analysis on a Helios mass cytometer. Signals were bead-normalized using EQ Four Element Calibration Beads.
Signals of samples were normalized using CyTOF software (Version 6.7.1014, Fluidigm). The generated files underwent signal cleanup and filtering for single cells using Cytobank (https://www.cytobank.org/). The gated Flow Cytometry Standard (FCS) file were downloaded for further analysis using Cytofkit. The PhenoGraph clustering algorithm in Cytofkit was implemented in R from the Bioconductor website (https://bioconductor.org/packages/cytofkit/). […] Epithelial and mesenchymal indices were calculated based on the average Z-score of epithelial and mesenchymal markers. […]

`CN1CCN(Cc2ccc(Nc3ncc(Cl)c(Nc4ccccc4S(=O)(=O)N(C)C)n3)cc2)CC1` [TP-0903] was tested, and the decreased deformation (A549 cells [1]) was 25%, the increase in stiffness (A549 cells [1]) was 3 fold and the increased adhesion (A549 cells [1]) was 50%. For the same molecule, the “IL-11 expression (RNA-seq)” value (A549 cells [2]) was “down-regulated significantly”, the “IL-11 expression (RNA-seq)” value (A549 cells [2]; listed as TP0903) was “markedly downregulated” and the “phosphorylated STAT3 (pSTAT3) levels (CyTOF)” value (A549 and H2009 cells; A549, 40 nmol/L) was “dramatically increased”. The “SMAD4 (CyTOF)” value (A549 and H2009 cells; A549 subpopulations #6-8, 40 nmol/L) was “suppressed”, the “JAK1-pSTAT3 expression (CyTOF)” value (A549 and H2009 cells; H2009 subpopulations #15 and 16 after treatment) was “amplified” and the “CD133 (CyTOF)” value (A549 and H2009 cells; cell lines, 40 nmol/L) was “elevated”.

— US20220308062A1, “METHODS FOR PREDICTING DRUG RESPONSIVENESS IN SAMPLES FROM CANCER SUBJECTS” (Board of Regents, The University of Texas System, priority 2019, published 2022)
